Test results taken from PMC8208971, “Copper-binding anticancer peptides from the piscidin family: an expanded mechanism that encompasses physical and chemical bilayer disruption” (Scientific Reports, 2021).
pIC50: −log10 of the molar value. Where two headings read alike, the source gives them in different places. No end group written: not given here.

Legend:
[1] = system: HT1080 (fibrosarcoma) cancer cells; assay: MTS cytotoxicity assay on HT1080 cells; type: cell-based
[2] = Lipid oxidation, absorbance at 234 nm; conditions: SUVs 0.20 mg/mL, P/L = 1:10 (26 µmol/L), 4 mmol/L phosphate pH 7.8, 24 h exposure to air, triplicates
From the text: It has long been known that certain divalent metal ions, especially iron and copper, promote lipid peroxidation (oxidative deterioration of polyunsaturated fatty acids), a mechanism that has been strongly associated with cellular injury and death. Divalent transition-metal ions participate in Fenton-like chemical reactions produces ROS (e.g., hydroxyl radicals, superoxide) that can oxidize double bonds within the membrane. Here, to learn about the possible piscidin/Cu^2+-mediated oxidation of double bonds in lipid bilayers, we used absorbance and mass spectrometry to measure the formation of the oxidation products in small unilamellar vesicles (SUV) constituted of di-linoleoyl-sn-glycero-3-phosphocholine (DLPC) and POPG mixed in a 3:1 molar ratio and prepared at a concentration of 0.50 mg total lipid/mL. We first tested the ability of free Cu^2+ to oxidize the double bonds within the liposomes. Increasing amounts of Cu^2+ for a fixed amount of lipids (expressed as Cu/L, the molar ratio of Cu^2+ to total lipid) were mixed with the SUVs and the absorbance was measured at λ = 234 nm (Fig. 7A) (corresponding to λmax for the conjugated dienes that appear in lipid oxidation products)[92],[93]. Because molecular oxygen (O2) found in the atmosphere readily dissolves in the bilayer, no exogenous oxidant is needed to initiate the oxidation of the double bonds. […]

[3] = system: A549 human lung cancer cells; assay: MTT cytotoxicity assay on A549 cells; type: cell-based; conditions: for Factor by which metallation with Cu^2+ increases efficacy, A549: from average IC50 values, apo vs Cu^2+-bound
[4] = system: MDA-MB-231 (breast) cancer cells; type: cell-based; conditions: for pIC50: 24 h
[5] = system: OMF (mucosal) fibroblast cells; conditions: tested at up to 10 mol/L; no significant inhibitory effects; ref Cheng et al.2; cited from earlier work
From the text: (§1) Tested at up to 10 µ mol/L ...

[6] = system: HGF-1 (gingival) fibroblast cells; conditions: tested at up; no significant inhibitory effects; ref Cheng et al.2; cited from earlier work
From the text: as §1

[7] = system: normal MRC-5 (lung) fibroblast cells; assay: Cytotoxicity assay on normal MRC-5 fibroblasts; type: cell-based; conditions: 95% confidence interval in parentheses; for apo-P1 given as 50% inhibition at
From the text: A549 human lung cancer cells were obtained from ATCC (ATCC CCL-185) and were maintained in Dulbecco’s Modified Eagle’s Medium (DMEM-F12, Lonza, catalog no. 12-719F) supplemented with 10% heat inactivated FBS and 1% Penn-Step. The HT1080 and MRC-5 cells were purchased from ATCC (catalog no. CCL-121 and CCL-171, respectively) and grown in Eagle’s Minimum Essential Medium (ATCC, catalog no. 30-2003TM) that was supplemented with FBS (ATCC, catalog no. 30-2021TM) such that the medium contained 10% FBS. The MDA-MB-231 and HeLa cells were obtained from ATCC (ATCC, catalog no. HTB-26 and CCL-2, respectively) and maintained in DMEM supplemented with 10% FBS. All cell cultures were grown at 37.5 °C in a humidified 5% CO2 atmosphere.
The cytotoxicity assays followed well established procedure, with the details given in the Supplementary Information. The assays were performed in triplicates using 96 well plates Cell viability was calculated using the equation: % viability = [(AT-AB)/(AC-AB)] × 100, where AT is the absorbance of the treatment well, AB is the average background absorbance measured from three wells containing only media, and AC is the absorbance of the […] control well, which received only 100 µL of media and 40 µL of MTT solution (i.e. no peptide). Averages and error bars were calculated as the mean + / − standard deviation based on triplicates. The IC50 values were obtained by fitting the percentage viability (% viability) vs Log (M) concentration of peptides to generate inhibitor dose response curve using the GraphPad Prism software. The curves were fitted using a least-squares minimization method. Individual data points on the graphs are provided as the mean (± standard deviation) from the triplicate % viability values. The GraphPad Prism algorithm converted the logIC50 into IC50 and used the standard error of the mean on the logIC50 to yield the 95% confidence interval for the logIC50 and IC50.
P1-Cu2+ and P3-Cu2+ were assayed on normal MRC-5 (lung) fibroblast cells (ATTC catalog no CCL-171), giving
given in parentheses. […]

[8] = SPR/EIS on tethered bilayer membrane (membrane permeation); conditions: POPC tBLM, Tris 20 mmol/L, 50 mmol/L NaCl, pH 7.4; steps of 0.1 μmol/L, 10 min each
Method: Planar, tethered bilayer membranes (tBLM) supported on gold-coated surfaces (Fig. 2C) were made using 1-palmitoyl-2-oleoyl-sn-glycero-3-phosphocholine (POPC) to mimic cancer cell membranes[80],[81]. Combined, surface plasmon resonance (SPR)/electrical impedance spectroscopy (EIS) measurements (Fig. 3) were conducted by injecting the peptide in small increments while simultaneously observing (1) the kinetics associated with the peptides binding to the bilayer (SPR) and (2) the formation of peptide-lined defects that increase membrane permeation and conductance (EIS). […]
SPR/EIS measurements were carried out on tethered bilayer membrane (tBLM) using a custom-built instrument previously described (Fig. 2B)[123],[124]. […] Several POPC tBLMs were assembled on the gold surfaces using thiolated polyethyleneglycol linker molecules (1,2-di-O-myristyl-3-[ω-mercaptohexa(ethylene oxide) glycerol] (WC14) and β-mercaptoethanol (βME) at a ratio of 70:30 βME:WC14. The tBLMs were equilibrated in Tris buffer (20 mmol/L, 50 mmol/L NaCl, pH 7.4) and allowed to rest until both SPR and EIS signals were stable, before peptide injection. Two types of measurements were done. In the first type (Fig. 3), the peptide concentration was increased gradually, in steps of 0.1 μmol/L, and the SPR/EIS was monitored for 10 min after each addition. […]

[9] = system: normal MRC-5 (lung) fibroblast cells; parameters: dose or concentration left out as unconfirmed; conditions: at about; ref Lin et al.1; cited from earlier work
From the text: as §1

[10] = system: HeLa (cervical) cancer cells; assay: MTS cytotoxicity assay on HeLa cells; type: cell-based; conditions: 24 h treatment, triplicates, 95% CI in parentheses, for P3 first data point at 0.16 µmol/L not used, holo-forms 1:1 CuCl2

| Molecule | Lipid oxidation (absorbance peak at 234 nm) [2] | Factor by which metallation with Cu^2+ increases efficacy, A549 [3] | pIC50 [7] | Peptide concentration inducing drop in bilayer resistance (EIS) [8] | pIC50 ([3]; 24 h) | pIC50 [4] | pIC50 ([1]; 24 h) | further results |
| --- | --- | --- | --- | --- | --- | --- | --- | --- |
| [Cl][Cu][Cl] [Free Cu^2+, CuCl2, reference compound] |  |  |  |  |  |  |  | Cytotoxicity of free Cu^2+ ([1]; CuCl2 tested at up to 30 µmol/L, HT1080 cells, same conditions as the peptides (Fig. S1B)): not cytotoxic |
| FFHHIFRGIVHVGKTIHRLVTG-NH2 [P1, piscidin 1] | little lipid oxidation | ≈ 2 fold | 5.07 | 0.2 µmol/L |  |  |  | Factor by which metallation with Cu^2+ increases efficacy, MDA-MB-231 ([4]; from average IC50 values, apo vs Cu^2+-bound, given as 'up to'): ≈ 2 fold; Survival, OMF [5]: > 90%; Survival, HGF-1 [6]: > 90%; Inhibition of MRC-5 cells [9]: ~ 45% |
| FFHHIFRGIVHVGKTIHRLVTG-NH2 [P1-Cu^2+] |  |  | 5.22 |  |  |  |  | pIC50 ([3]; MTT, 24 h treatment, triplicates, 95% CI in parentheses, holo-forms 1:1 CuCl2, read-out: IC50, A549): 5.67; pIC50 [10]: 5.66; pIC50 ([1]; MTS, 24 h treatment, triplicates, 95% confidence interval in parentheses, holo-forms metallated 1:1 with CuCl2, read-out: IC50, HT1080): 5.27 |
| FIHHIFRGIVHAGRSIGRFLTG-NH2 [P3, piscidin 3] | little lipid oxidation | ≈ 7 fold |  | 0.5 µmol/L | 4.67 | 4.76 | 4.58 | Factor by which metallation with Cu^2+ increases efficacy, HT1080 ([1]; from average IC50 values, apo vs Cu^2+-bound): ≈ 5 fold |
| FIHHIFRGIVHAGRSIGRFLTG-NH2 [P3-Cu^2+] |  |  | 5.06 |  | 5.52 | 5.28 | 5.26 |  |
